{"source": "patent US20040209315A1", "about": "“Methods to identify agents that increase or decrease UBP43 activity and methods for use of such agents” (priority 2003, published 2004)", "key": {"[1]": {"system": "UBP43± and UBP43−/− bone marrow cells", "assay": "Liquid bone marrow cell culture, Trypan blue dye exclusion assay", "assay_type": "cell-based, mice", "conditions": "10 ng/ml, 48 hours", "method": "(a) Bone marrow cells isolated from UBP43+/+ and UBP43−/− mice were cultured in vitro in the presence or the absence of INFβ (100 units/ml) for 48 hours. TUNEL assay was performed to study the percentage of apoptosis cells. […] Cells were then subjected to Trypan blue dye exclusion assay. Each data point represents the mean of three independent experiments. Error bar represents standard deviation about the mean.\nIn vitro bone marrow cell culture.\nTNFα and the type II IFN-IFNγ are commonly used to study bone marrow cell growth and apoptosis and in the analysis of various knockout mouse models."}, "[2]": {"system": "UBP43+/+ and UBP43−/− mice", "assay": "Hematopoietic cell counting (peripheral white blood cells, bone marrow nucleated cells) after poly(I—C) injection", "assay_type": "in vivo", "method": "(§1) (a) Seven mice of each group (UBP43 +/+ and UBP43−/−) were ip injected daily with poly(I—C). Viability was monitored daily. (b) UBP43+/+ and UBP43−/− mice (n=4 for each group) were ip injected daily with poly(I—C). The total number of white blood cells (WEC) in the peripheral blood was counted daily after each poly(I—C) injection. (c) UBP43+/+ and UBP43−/− mice (n=5 for each group) were either left untreated or were ip injected with poly(I—C) 24 h prior to bone marrow extraction. Bone marrow cells were counted in control and poly(I—C) injected group of mice (two femurs from each mouse).\n(§2) Poly(I—C) injection and hematopoietic cell counting: Poly(I—C) (Sigma) was dissolved in phosphate buffered saline and intraperitoneally (ip) injected to mice at 5 μg/g body weight (gbw). Blood and bone marrow nucleated cells were counted in Turk solution (3% acetic acid and 0.01% crystal violet in H2O).\n(§3) UBP43-null mice are sensitive to potent IFN-inducer poly(I—C). Injection with synthetic double stranded RNA-polyinosinic acid-polycytidylic acid (poly(I—C)) has been commonly used to induce endogenous IFN production in mice. […] There were dramatic decreases (over 90%) in the total number of white blood cells in peripheral blood and nucleated cells in bone marrow of UBP43−/− mice."}, "[3]": {"system": "UBP43+/+ and UBP43−/− mice", "assay": "Viability of mice after daily ip poly(I—C) injection", "assay_type": "in vivo", "conditions": "daily ip poly(I—C) 5 μg/g body weight", "method": "as §1, §2, §3"}, "[4]": {"system": "hematopoietic cells transplanted from UBP43+/+ or UBP43−/− mice", "assay": "Bone marrow transplantation, flow cytometric analysis of CD45.2+ donor blood cells before and after poly(I—C) injection", "assay_type": "in vivo", "excerpt": "(a) Hematopoietic cells transplanted from UBP43−/− mice to UBP43+/+ congenic strain mice are hypersensitive to poly(I—C) injection. Bone marrow cells (CD45.2+) from individual UBP43+/+ and UBP43−/− mice (n=4 for each group) were isolated and transplanted to lethally irradiated congenic strain mice (CD45.2−). Six months after the transplantation, flow cytometric analysis was done to determine the relative amount of peripheral blood cells contributed from the donor or recipient mice based on CD45-2 immunostaining before and after poly(I—C) injection (48 h). Flow cytometric analysis results from one representative mouse transplanted with UBP43+/+ or UBP43−/− bone marrow are presented. (b) UBP43−/− bone marrow cells are hypersensitive to IFNβ treatment. Bone marrow cells from UBP43+/+ and UBP43−/− mice were cultured at 2×10^4 cells/ml in CFU assay medium in the presence of various concentrations of IFNβ. Total colony number was counted after 12 days of culture. Results of a single representative experiment of two independent experiments are shown. […]\nBone marrow transplantation. […] The appearance of donor origin blood cells (CD45.2+) was detected by flow cytometric analysis with […] (FITC) conjugated CD45.2 antibodies (BD Biosciences). […]"}}}
{"substance": "IFNγ: type II IFN, proapoptotic cytokine (Peprotech)", "values": [{"measurement": "difference in cell death between UBP43± cells and UBP43−/− cells", "setting": "[1]", "value": "did not cause a significant difference"}]}
{"substance": "TNF-α", "values": [{"measurement": "difference in cell death between UBP43± cells and UBP43−/− cells", "setting": "[1]", "value": "did not cause a significant difference"}]}
{"substance": "polyinosinic acid-polycytidylic acid [poly(I—C)]", "values": [{"measurement": "decrease in number of total peripheral white blood cells", "setting": "[2]; UBP43+/+ mice, ip poly(I—C)", "value": 20, "unit": "%"}, {"measurement": "decrease in total bone marrow nucleated cells", "setting": "[2]; UBP43+/+ mice, ip poly(I—C) 24 h prior to bone marrow extraction", "value": 30, "unit": "%"}, {"measurement": "decrease in total number of white blood cells in peripheral blood", "setting": "[2]; UBP43−/− mice, ip poly(I—C)", "value": "over 90%"}, {"measurement": "decrease in nucleated cells in bone marrow", "setting": "[2]; UBP43−/− mice, ip poly(I—C) 24 h prior to bone marrow extraction", "value": "over 90%"}, {"measurement": "viability", "setting": "[3]; UBP43+/+ mice (n=7)", "value": "survived the course of treatment"}, {"measurement": "time within which all mice died post treatment", "setting": "[3]; UBP43−/− mice (n=7)", "value": "≤ 72", "unit": "h"}, {"measurement": "relative amount of CD45.2+ cells in the peripheral blood", "setting": "[4]; UBP43+/+ donor, 48 h after poly(I—C) injection", "value": "did not change"}, {"measurement": "blood cells of the UBP43−/− genotype (CD45.2+)", "setting": "[4]; UBP43−/− donor, 48 hours post administration, 79% before dosing", "value": 12, "unit": "%"}]}
